Assay results as given in ChEMBL document CHEMBL1275384, “Structure-activity relationships of benzimidazole-based selective inhibitors of the mitogen activated kinase-5 signaling pathway” (2010).

Legend:
[1] = biological target: T1, Dual specificity mitogen-activated protein kinase kinase 5 (Homo sapiens) (UniProt Q13163); settings: HEK293, at 10 µM;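 also: MEK5 activity stimulated by EGF, read out as phospho-ERK5 on Western blot after 1 h treatment, expressed relative to control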
T1 sequence (whole entry): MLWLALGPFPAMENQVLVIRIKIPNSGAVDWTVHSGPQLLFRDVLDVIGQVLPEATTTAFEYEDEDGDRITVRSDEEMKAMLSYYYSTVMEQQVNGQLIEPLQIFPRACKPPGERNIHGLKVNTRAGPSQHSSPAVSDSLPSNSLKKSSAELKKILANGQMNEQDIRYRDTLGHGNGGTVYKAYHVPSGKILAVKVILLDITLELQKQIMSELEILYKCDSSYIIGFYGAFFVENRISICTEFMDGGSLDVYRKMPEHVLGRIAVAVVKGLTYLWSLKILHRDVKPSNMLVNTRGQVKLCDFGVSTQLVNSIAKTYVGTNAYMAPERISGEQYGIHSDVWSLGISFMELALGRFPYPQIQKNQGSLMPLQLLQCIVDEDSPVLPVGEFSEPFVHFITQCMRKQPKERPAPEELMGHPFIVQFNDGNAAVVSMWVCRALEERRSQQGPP
Description: Inhibition of EGF-induced MEK5 activity in HEK293 cells assessed as phosphorylated ERK5 level at 10 uM after 1 hr by Western blotting relative to control

MDA-N = experiment: Cytotoxicity against human MDA-N cells at 10 uM assessed as cell growth relative to control; format: functional; settings: read-out: Activity
CCRF-CEM = experiment: Cytotoxicity against human CCRF-CEM cells at 10 uM assessed as cell growth relative to control; format: functional; settings: read-out: Activity
HL-60(TB) = experiment: Cytotoxicity against human HL-60(TB) cells at 10 uM assessed as cell growth relative to control; format: functional; settings: read-out: Activity
K562 = experiment: Cytotoxicity against human K562 cells at 10 uM assessed as cell growth relative to control; format: functional; settings: read-out: Activity
HOP-62 = experiment: Cytotoxicity against human HOP62 cells at 10 uM assessed as cell growth relative to control; format: functional; settings: read-out: Activity
NCI-H23 = experiment: Cytotoxicity against human NCI-H23 cells at 10 uM assessed as cell growth relative to control; format: functional; settings: read-out: Activity
NCI-H522 = experiment: Cytotoxicity against human NCI-H522 cells at 10 uM assessed as cell growth relative to control; format: functional; settings: read-out: Activity
HCT-116 = experiment: Cytotoxicity against human HCT116 cells at 10 uM assessed as cell growth relative to control; format: functional; settings: read-out: Activity
SF-539 = experiment: Cytotoxicity against human SF539 cells at 10 uM assessed as cell growth relative to control; format: functional; settings: read-out: Activity
SNB-19 = experiment: Cytotoxicity against human SNB19 cells at 10 uM assessed as cell growth relative to control; format: functional; settings: read-out: Activity
SNB-75 = experiment: Cytotoxicity against human SNB75 cells at 10 uM assessed as cell growth relative to control; format: functional; settings: read-out: Activity
U-251 = experiment: Cytotoxicity against human U251 cells at 10 uM assessed as cell growth relative to control; format: functional; settings: read-out: Activity
M14 = experiment: Cytotoxicity against human M14 cells at 10 uM assessed as cell growth relative to control; format: functional; settings: read-out: Activity
SK-MEL-5 = experiment: Cytotoxicity against human SK-MEL-5 cells at 10 uM assessed as cell growth relative to control; format: functional; settings: read-out: Activity
IGROV-1 = experiment: Cytotoxicity against human IGROV1 cells at 10 uM assessed as cell growth relative to control; format: functional; settings: read-out: Activity
OVCAR-5 = experiment: Cytotoxicity against human OVCAR5 cells at 10 uM assessed as cell growth relative to control; format: functional; settings: read-out: Activity
NCI/ADR-RES = experiment: Cytotoxicity against human NCI/ADR-RES cells at 10 uM assessed as cell growth relative to control; format: functional; settings: read-out: Activity
SK-OV-3 = experiment: Cytotoxicity against human SKOV3 cells at 10 uM assessed as cell growth relative to control; format: functional; settings: read-out: Activity
A498 = experiment: Cytotoxicity against human A498 cells at 10 uM assessed as cell growth relative to control; format: functional; settings: read-out: Activity
RXF 393 = experiment: Cytotoxicity against human RXF393 cells at 10 uM assessed as cell growth relative to control; format: functional; settings: read-out: Activity
SN12C = experiment: Cytotoxicity against human SN12C cells at 10 uM assessed as cell growth relative to control; format: functional; settings: read-out: Activity
PC-3 = experiment: Cytotoxicity against human PC3 cells at 10 uM assessed as cell growth relative to control; format: functional; settings: read-out: Activity
DU-145 = experiment: Cytotoxicity against human DU145 cells at 10 uM assessed as cell growth relative to control; format: functional; settings: read-out: Activity
MDA-MB-231 = experiment: Cytotoxicity against human MDA-MB-231 cells at 10 uM assessed as cell growth relative to control; format: functional; settings: read-out: Activity
BT-549 = experiment: Cytotoxicity against human BT549 cells at 10 uM assessed as cell growth relative to control; format: functional; settings: read-out: Activity
[2] = biological target: Dual specificity mitogen-activated protein kinase kinase; MEK1/2 (Homo sapiens) (UniProt P36507+Q02750); settings: HEK293, at 10 µM
Sequence of Dual specificity mitogen-activated protein kinase kinase; MEK1/2 (Homo sapiens) (P36507 whole entry, looked up): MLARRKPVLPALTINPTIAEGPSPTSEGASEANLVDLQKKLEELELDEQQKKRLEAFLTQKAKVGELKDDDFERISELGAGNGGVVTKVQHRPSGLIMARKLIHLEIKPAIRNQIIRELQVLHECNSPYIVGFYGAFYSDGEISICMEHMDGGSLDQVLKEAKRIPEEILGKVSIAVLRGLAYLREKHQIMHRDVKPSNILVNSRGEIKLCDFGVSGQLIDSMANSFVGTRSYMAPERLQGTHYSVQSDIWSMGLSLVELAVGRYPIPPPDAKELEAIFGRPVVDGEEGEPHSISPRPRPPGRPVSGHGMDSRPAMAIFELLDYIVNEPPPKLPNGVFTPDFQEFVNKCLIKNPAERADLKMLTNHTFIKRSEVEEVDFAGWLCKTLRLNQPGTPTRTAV
Sequence of Dual specificity mitogen-activated protein kinase kinase; MEK1/2 (Homo sapiens) (Q02750 whole entry, looked up): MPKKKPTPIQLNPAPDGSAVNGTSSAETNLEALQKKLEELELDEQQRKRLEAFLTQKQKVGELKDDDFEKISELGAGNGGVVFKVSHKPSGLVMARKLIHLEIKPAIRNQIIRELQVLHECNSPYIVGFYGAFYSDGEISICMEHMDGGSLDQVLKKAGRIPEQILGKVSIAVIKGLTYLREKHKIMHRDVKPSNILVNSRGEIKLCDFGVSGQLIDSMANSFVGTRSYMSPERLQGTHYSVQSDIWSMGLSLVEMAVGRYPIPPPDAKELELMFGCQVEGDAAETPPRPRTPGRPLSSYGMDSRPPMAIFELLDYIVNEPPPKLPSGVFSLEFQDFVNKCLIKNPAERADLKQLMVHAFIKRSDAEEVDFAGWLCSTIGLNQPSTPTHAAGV
Description: Inhibition of EGF-induced MEK1/2 activity in HEK293 cells assessed as phosphorylated ERK1/2 level at 10 uM after 1 hr by Western blotting relative to control

## CCCOc1cc(NCc2ccccc2)c2ncn(C(C)C)c2c1
[1]
  inhibition: 24%

## CN1CCN(c2ccc3[nH]c(-c4ccc5[nH]c(-c6ccc(O)cc6)nc5c4)nc3c2)CC1 [HOECHST 33258]
MDA-N
  growth at 10 µM: -5.06%
CCRF-CEM
  growth at 10 µM: -4.89%
HL-60(TB)
  growth at 10 µM: -4.62%
K562
  growth at 10 µM: -5.22%
HOP-62
  growth at 10 µM: -4%
NCI-H23
  growth at 10 µM: -4%
NCI-H522
  growth at 10 µM: -5.52%
HCT-116
  growth at 10 µM: -4.52%
SF-539
  growth at 10 µM: -4%
SNB-19
  growth at 10 µM: -4%
SNB-75
  growth at 10 µM: -4%
U-251
  growth at 10 µM: -4%
M14
  growth at 10 µM: -4%
SK-MEL-5
  growth at 10 µM: -4.01%
IGROV-1
  growth at 10 µM: -4%
OVCAR-5
  growth at 10 µM: -4%
NCI/ADR-RES
  growth at 10 µM: -4%
SK-OV-3
  growth at 10 µM: -4%
A498
  growth at 10 µM: -4%
RXF 393
  growth at 10 µM: -4%
SN12C
  growth at 10 µM: -4%
PC-3
  growth at 10 µM: -4%
DU-145
  growth at 10 µM: -4%
MDA-MB-231
  growth at 10 µM: -4%
BT-549
  growth at 10 µM: -4%
[2]
  inhibition: 22%
[1]
  inhibition: 30%

## CCCCOc1cc(NCc2ccccc2)c2ncn(C(C)C)c2c1
[1]
  inhibition: 5%

## CC(C)n1cnc2c(NCc3ccccc3)cc(OCCCN3CCOCC3)cc21
[2]
  inhibition: 92%
[1]
  inhibition: 0%

## CCOc1cc(NCc2ccccc2)c2ncn(C(C)C)c2c1
[1]
  inhibition: 63%

## N#CC(=C(/N)Sc1ccccc1N)/C(C#N)=C(\N)Sc1ccccc1N
[1]
  inhibition: 27%

## CC(C)Oc1cc(NCc2ccccc2)c2ncn(C(C)C)c2c1
[2]
  inhibition: 0%
[1]
  inhibition: 22%

## COc1cc(N)c2c(c1)N(C(C)C)CN2
[2]
  inhibition: 18%
[1]
  inhibition: 42%

## CCOCCOc1cc(NCc2ccccc2)c2ncn(C(C)C)c2c1
[2]
  inhibition: 100%
[1]
  inhibition: 75%
